Series [1] is described as follows: Lipophilicity (LogD pH 7.4). The series is classed as physicochemical. The protocol:
(§1) Compounds 1–3 were characterized in a hybrid reporter gene assay for their agoniztic effect on human nuclear receptors PPARα/γ/δ, RXRα, FXRα, RARα in HEK293T cells. Compound 1 was tested in an isothermal titration calorimetry (ITC) assay to measure direct binding affinity to the ligand-binding domain of PPARγ. ADME properties were measured in standardized assays at Roche.
(§2) SI11Absorption Distribution Metabolism and Excretion and Toxicity Data
(§3) To assess the drug-like characteristics of the newly designed PPAR modulators, a series of tests were conducted covering various aspects of absorption, distribution, metabolism, and excretion (ADME) properties. Specifically, these assessments included the parallel artificial membrane permeability assay (PAMPA) with permeation co- […]
(§4) efficients ([…]), LogD measurements, microsomal clearance, hepatocyte clearance, P-glycoprotein (Pgp) efflux ratio and binding and the unbound free fraction. […]
(§5) Table S14: Absorption distribution metabolism and excretion (ADME) properties of compounds 1 and 2. The […]
(§6) values for […], LogD, protein binding, P-glycoprotein (Pgp) efflux ratio and permeability, and hepato-cyte clearance are presented as the mean and standard deviation, with a sample size of N = 3, i.e., 3 technical replicates each. The values for microsomal clearance and CYP-inhibition represent single point measurements. […]

The nature of series [2]: Microsomal clearance, rat. Type of series: in vitro ADME. To be noted: rat microsomes, single point measurement. Here is the method: as §1, §2, §3
(§7) efficients ([…]), LogD measurements, microsomal clearance, hepatocyte clearance, P-glycoprotein (Pgp) efflux ratio and binding and the unbound free fraction. […] For seven selected CYP proteins (i.e., Cyp3A4, Cyp1A2, Cyp2B6, Cyp2C9, Cyp2D6, Cyp2C19, and Cyp2C8) the half maximal inhibitory con-centration (IC50) was determined. […]
(§8) Compounds 1 and 2 were validated for cytotoxicity on HEK293T cells. Figure S16 depicts the measured cyto-toxicity at two time points (i.e., 16h and 24h), 10 different concentrations (i.e., 0.05 - 20 µM), and 5 different

Series [3] in a line: Microsomal clearance, human. Type of series: in vitro ADME. To be noted: human microsomes, single point measurement. Here is the method:
as §1, §2, §3, §7, §8

Series [4] can be described thus: Microsomal clearance, mouse. Type of series: in vitro ADME. To be noted: mouse microsomes, single point measurement. Here is the method: as §1, §2, §3, §7, §8
Series [5] is described as follows: Parallel artificial membrane permeability assay (PAMPA). The series is classed as in vitro ADME. Particulars: read-out: […] permeation coefficient. Here is the method:
as §1, §2, §3, §4, §5, §6
In general terms: The PAMPA barrier holds no transporters, so it reflects passive diffusion.

The structures appear in SMILES notation. Where only a bound is given, the exact number is not on record here.

The values that follow come from PMC11035696, “Prospective de novo drug design with deep interactome learning” (Nature Communications, 2024).

`CO[C@@H](Cc1ccc(OCCc2nc(-c3ccccc3)oc2C)c2ccsc12)C(=O)O` [aleglitazar]: the pH-dependent lipophilicity (logD) in series [1] is 1.4. Moreover, in series [2], the “Microsomal clearance, rat” value is not below 10 µL·min−1·mg−1 protein. In addition, the “Microsomal clearance, human” value in series [3] is listed as not below 10 µL·min−1·mg−1 protein. Moreover, in series [4], the “Microsomal clearance, mouse” value is on record as not below 10 µL·min−1·mg−1 protein. In series [5], the Papp amounted to 6 ×10⁻⁶ cm/s.

As a reminder, the logD is the decadic logarithm of the distribution of all forms, ionised or not, between an organic phase and buffer at a given pH. Low readings indicate a more hydrophilic compound, high ones a more lipophilic compound.
